Laboratory results taken from the NIST ThermoML archive (doi:10.1021/acs.jced.8b00492).

Assay: mn = molality of the nth substance listed, in mol/kg
Conditions: for surface tension liquid-gas: Ring tensiometer; for viscosity / speed of sound / mass density: 100 kPa, Liquid; for viscosity: Capillary tube (Ostwald / Ubbelohde) method; for speed of sound: Frequency=3 MHz, Single path-length method; for mass density: Vibrating tube method

C1N2CN3CN1CN(C2)C3 [1,3,5,7-tetraazaadamantane] + O
Conditions | mass density [kg/m3] | speed of sound [m/s] | surface tension liquid-gas [mN/m] | viscosity [mPa·s]
293.15 K, m1 = 0.207 | 1004.3 | 1493.6 | 69.2 | 1.075
293.15 K, m1 = 0.425 | 1010.5 | 1504.9 | 67.4 | 1.168
293.15 K, m1 = 0.654 | 1016.6 | 1516.5 | 66.2 | 1.287
293.15 K, m1 = 0.897 | 1022.9 | 1528.8 | 65.4 | 1.419
293.15 K, m1 = 1.164 | 1029.5 | 1541.8 | 64.8 | 1.579
293.15 K, m1 = 1.449 | 1036.1 | 1555.9 | 64.4 | 1.711
293.15 K, m1 = 1.748 | 1042.9 | 1569.3 | 64 | 1.911
293.15 K, m1 = 2.068 | 1049.6 | 1583.3 | 63.7 | 2.142
293.15 K, m1 = 2.412 | 1056.3 | 1597.1 | 63.5 | 2.477
293.15 K, m1 = 2.779 | 1063.3 | 1611.8 | 63.3 | 2.777
293.15 K, m1 = 3.181 | 1070.4 | 1626.9 | 63.2 | 3.217
293.15 K, m1 = 3.617 | 1077.6 | 1642.5 | 63.1 | 3.698
293.15 K, m1 = 4.088 | 1084.9 | 1658.4 | 63 | 4.214
293.15 K, m1 = 4.609 | 1092.3 | 1674.7 | 62.9 | 4.991
293.15 K, m1 = 5.155 | 1099.8 | 1691.4 | 62.9 | 5.869
303.15 K, m1 = 0.207 | 1001.6 | 1519 | 67.5 | 0.88
303.15 K, m1 = 0.425 | 1007.7 | 1529.4 | 66.1 | 0.942
303.15 K, m1 = 0.654 | 1013.8 | 1539.3 | 65 | 1.025
303.15 K, m1 = 0.897 | 1019.9 | 1550 | 64.2 | 1.085
303.15 K, m1 = 1.164 | 1026.4 | 1561.1 | 63.5 | 1.193
303.15 K, m1 = 1.449 | 1032.9 | 1573.6 | 62.9 | 1.309
303.15 K, m1 = 1.748 | 1039.4 | 1585 | 62.5 | 1.472
303.15 K, m1 = 2.068 | 1046 | 1597.4 | 62.2 | 1.631
303.15 K, m1 = 2.412 | 1052.9 | 1609.3 | 61.9 | 1.875
303.15 K, m1 = 2.779 | 1059.7 | 1622.1 | 61.7 | 2.094
303.15 K, m1 = 3.181 | 1066.6 | 1635.2 | 61.5 | 2.402
303.15 K, m1 = 3.617 | 1073.6 | 1648.7 | 61.4 | 2.743
303.15 K, m1 = 4.088 | 1080.8 | 1662.4 | 61.3 | 3.092
303.15 K, m1 = 4.609 | 1088 | 1676.5 | 61.2 | 3.635
303.15 K, m1 = 5.155 | 1095 | 1690.9 | 61.2 | 4.21
313.15 K, m1 = 0.207 | 998 | 1538 | 66.3 | 0.718
313.15 K, m1 = 0.425 | 1004.1 | 1546.6 | 64.7 | 0.761
313.15 K, m1 = 0.654 | 1010.1 | 1555.4 | 63.5 | 0.806
313.15 K, m1 = 0.897 | 1016.1 | 1565 | 62.8 | 0.87
313.15 K, m1 = 1.164 | 1022.5 | 1574.7 | 62.1 | 0.936
313.15 K, m1 = 1.449 | 1028.9 | 1585.8 | 61.5 | 1.017
313.15 K, m1 = 1.748 | 1035.4 | 1595.6 | 61.1 | 1.158
313.15 K, m1 = 2.068 | 1041.8 | 1606.6 | 60.7 | 1.26
313.15 K, m1 = 2.412 | 1048.3 | 1616 | 60.5 | 1.441
313.15 K, m1 = 2.779 | 1055 | 1627.1 | 60.3 | 1.597
313.15 K, m1 = 3.181 | 1061.8 | 1638.5 | 60.2 | 1.82
313.15 K, m1 = 3.617 | 1068.7 | 1650.1 | 60.1 | 2.063
313.15 K, m1 = 4.088 | 1075.6 | 1661.9 | 60 | 2.296
313.15 K, m1 = 4.609 | 1082.7 | 1674 | 59.9 | 2.687
313.15 K, m1 = 5.155 | 1089.8 | 1687.2 | 59.9 | 3.084
323.15 K, m1 = 0.207 | 993.9 | 1549.2 | 65.1 | 0.596
323.15 K, m1 = 0.425 | 999.7 | 1557.4 | 63.4 | 0.635
323.15 K, m1 = 0.654 | 1005.6 | 1566.1 | 62.1 | 0.671
323.15 K, m1 = 0.897 | 1011 | 1574.4 | 61.2 | 0.716
323.15 K, m1 = 1.164 | 1018 | 1583 | 60.5 | 0.755
323.15 K, m1 = 1.449 | 1024.3 | 1593.1 | 60.1 | 0.819
323.15 K, m1 = 1.748 | 1030.7 | 1601.3 | 59.7 | 0.908
323.15 K, m1 = 2.068 | 1037.1 | 1611.1 | 59.5 | 0.985
323.15 K, m1 = 2.412 | 1043.5 | 1620 | 59.2 | 1.131
323.15 K, m1 = 2.779 | 1050.1 | 1629.6 | 59 | 1.233
323.15 K, m1 = 3.181 | 1056.8 | 1639.4 | 58.9 | 1.387
323.15 K, m1 = 3.617 | 1063.5 | 1649.3 | 58.8 | 1.569
323.15 K, m1 = 4.088 | 1070.4 | 1659.4 | 58.7 | 1.77
323.15 K, m1 = 4.609 | 1077.3 | 1669.7 | 58.6 | 2.027
323.15 K, m1 = 5.155 | 1084.2 | 1680.2 | 58.6 | 2.327
